Experimental findings from patent publication US9833497B2, “Human originated EGF domain proteins and use of the same” (CHENGDU SOURCEBIO LIMITED-LIABILITY COMPANY, priority 2013, dated 2017) are described below.

What all share (format): cell-based
In assay [1] the test system is E. coli DH5α. Put plainly: Antibacterial activity: MIC and growth curve against E. coli DH5α in 96-well plate. The conditions noted are these: minimal inhibitory concentration against E. coli DH5α; 96-well plate, 5×10^5 CFU/mL, 37° C., judged after 8 h. In a few lines: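 Log-phase DH5α (OD600 about 0.5, 37° C, 185 rpm in LB) was pelleted, resuspended in fresh LB and seeded at 5×10^5 CFU/mL with recombinant protein at 50, 25 and 12.5 μg/mL (two-fold series), in triplicate. Plates were shaken at 175 rpm, 37° C, and OD600 was read every 30 min. MIC was the lowest concentration with no growth.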

Assay [2] has as its system E. coli BL21. Put plainly: MIC against Gram-negative bacteria: E. coli BL21. The conditions noted are these: 5×10^5 CFU/mL. The procedure, abridged: (§1)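 MIC, the lowest recombinant protein concentration giving no bacterial growth, found by two-fold serial dilution of human EGF-domain proteins in triplicate. Inoculum 5×10^5 CFU/mL in LB from cultures at McFarland 0.5; plates incubated at 37° C, 175 rpm shaking.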

Assay [3] concerns Pseudomonas aeruginosa. Put plainly: MIC against Gram-negative bacteria: Pseudomonas aeruginosa. The conditions noted are these: 5×10^5 CFU/mL. The procedure, abridged:
as §1

The subject of assay [4] is Klebsiella pneumonia. Put plainly: MIC against Gram-negative bacteria: Klebsiella pneumonia. The conditions noted are these: 5×10^5 CFU/mL. The procedure, abridged: as §1
For assay [5], the system named is Enterobacter cloacae. Put plainly: MIC against Gram-negative bacteria: Enterobacter cloacae. Particulars: 5×10^5 CFU/mL. In a few lines: as §1
The subject of assay [6] is Aeromonas hydrophila. Put plainly: MIC against Gram-negative bacteria: Aeromonas hydrophila. Particulars: 5×10^5 CFU/mL. The procedure, abridged: as §1
Assay [7] concerns Citrobacter diversus. Put plainly: MIC against Gram-negative bacteria: Citrobacter diversus. Particulars: 5×10^5 CFU/mL. The procedure, abridged:
as §1

For assay [8], the system named is Moraxella catarrhalis. Put plainly: MIC against Gram-negative bacteria: Moraxella catarrhalis. The conditions noted are these: 5×10^5 CFU/mL. The procedure, abridged: as §1
Assay [9] relates to Proteus mirabilis. Put plainly: MIC against Gram-negative bacteria: Proteus mirabilis. The conditions noted are these: 5×10^5 CFU/mL. In a few lines:
as §1

In assay [10] the test system is Proteus vulgaris. Put plainly: MIC against Gram-negative bacteria: Proteus vulgaris. Particulars: 5×10^5 CFU/mL. The procedure, abridged:
as §1

In assay [11] the test system is Serratia marcescens. Put plainly: MIC against Gram-negative bacteria: Serratia marcescens. Particulars: 5×10^5 CFU/mL. In a few lines:
as §1

Where [12] appears, read: E. coli BL21, 96-well plate, 37° C., 10 h.
Where [13] appears, read: Pseudomonas aeruginosa, 96-well plate, 37° C., 10 h.
Setting [14] is: Klebsiella pneumonia, 96-well plate, 37° C., 10 h.
The mark [15] stands for this setting: Enterobacter cloacae, 96-well plate, 37° C., 10 h.
[16] abbreviates: Aeromonas hydrophila, 96-well plate, 37° C., 10 h.
Setting [17] is: Citrobacter diversus, 96-well plate, 37° C., 10 h.
The mark [18] stands for this setting: Moraxella catarrhalis, 96-well plate, 37° C., 10 h.
[19] abbreviates: Proteus mirabilis, 96-well plate, 37° C., 10 h.
Where [20] appears, read: Proteus vulgaris, 96-well plate, 37° C., 10 h.
Where [21] appears, read: Serratia marcescens, 96-well plate, 37° C., 10 h.
[22] abbreviates: 10 h cultivation at 37° C., two-fold serial dilution.

What is called MIC is the lowest concentration found to suppress growth. The low end stands for inhibition by little substance, the high end for a need for much substance. For “PRT41 (CDRPCVNGGRCNPGTGQCVCPAGWVGEQC; listed as Homo sapiens)”, the MIC in assay [1] came out at 25 µg/mL. Moreover, the “MIC (μg/mL) E. coli BL21” value in assay [2] (setting [12]) came to 12.5 µg/mL. Moreover, in [3] (setting [13]), the “MIC (μg/mL) P. aeruginosa” value is 25 µg/mL. Moreover, the “MIC (μg/mL) K. pneumonia” value in assay [4] (setting [14]) worked out at 12.5 µg/mL. For the same substance, the “MIC (μg/mL) E. cloacae” value in [5] (setting [15]) was 25 µg/mL. For the same substance, in assay [6] (setting [16]), the “MIC (μg/mL) A. hydrophila” value is 12.5 µg/mL. Further, the “MIC (μg/mL) C. diversus” value in [7] (setting [17]) amounted to 25 µg/mL. The “MIC (μg/mL) M. catarrhalis” value in assay [8] (setting [18]) was determined as 12.5 µg/mL. Besides, the “MIC (μg/mL) P. mirabilis” value in [9] (setting [19]) is 25 µg/mL. Besides, in [10] (setting [20]), the “MIC (μg/mL) P. vulgaris” value is 12.5 µg/mL. Also, the “MIC (μg/mL) S. marcescens” value in [11] (setting [21]) turned out to be 50 µg/mL.

For “PRT697 (DVDECAQEPPPCGPGRCDNTAGSFHCACPAGFRSRGPGAPCQ; listed as Homo sapiens)”, the MIC in assay [1] amounted to 25 µg/mL. Also, the “MIC E. coli BL21” value in assay [2] (96-well plate, 37° C., 10 h) was found to be 25 µg/mL. Moreover, in assay [3] (96-well plate, 37° C., 10 h), the “MIC P. aeruginosa” value was found to be 50 µg/mL. Besides, the “MIC K. pneumonia” value in assay [4] (96-well plate, 37° C., 10 h) came out at 12.5 µg/mL. Also, the “MIC E. cloacae” value in assay [5] (96-well plate, 37° C., 10 h) amounted to 50 µg/mL. Also, the “MIC A. hydrophila” value in [6] (96-well plate, 37° C., 10 h) was found to be 25 µg/mL. Further, the “MIC C. diversus” value in [7] (96-well plate, 37° C., 10 h) came to 12.5 µg/mL. The “MIC M. catarrhalis” value in assay [8] (96-well plate, 37° C., 10 h) was 50 µg/mL. The “MIC P. mirabilis” value in assay [9] (96-well plate, 37° C., 10 h) turned out to be 12.5 µg/mL. Further, in assay [10] (96-well plate, 37° C., 10 h), the “MIC P. vulgaris” value came to 25 µg/mL. In addition, the “MIC S. marcescens” value in assay [11] (96-well plate, 37° C., 10 h) is 25 µg/mL.

Consider “PRT683 (DIDECSQDPSLCLPHGACKNLQGSYVCVCDEGFTPTQDQHGCE; listed as Homo sapiens)”, for which the MIC in assay [1] is 12.5 µg/mL. For the same substance, the “MIC E. coli BL21” value in [2] (96-well plate, 37° C., 10 h) was determined as 25 µg/mL. Moreover, in assay [3] (96-well plate, 37° C., 10 h), the “MIC P. aeruginosa” value was 50 µg/mL. The “MIC K. pneumonia” value in [4] (96-well plate, 37° C., 10 h) amounted to 25 µg/mL. Besides, the “MIC E. cloacae” value in assay [5] (96-well plate, 37° C., 10 h) was determined as 12.5 µg/mL. Further, in assay [6] (96-well plate, 37° C., 10 h), the “MIC A. hydrophila” value is 50 µg/mL. For the same substance, the “MIC C. diversus” value in assay [7] (96-well plate, 37° C., 10 h) stood at 25 µg/mL. For the same substance, the “MIC M. catarrhalis” value in assay [8] (96-well plate, 37° C., 10 h) was determined as 25 µg/mL. Further, in [9] (96-well plate, 37° C., 10 h), the “MIC P. mirabilis” value is 12.5 µg/mL. In addition, the “MIC P. vulgaris” value in assay [10] (96-well plate, 37° C., 10 h) worked out at 50 µg/mL. Besides, the “MIC S. marcescens” value in [11] (96-well plate, 37° C., 10 h) was found to be 25 µg/mL.

Substance “PRT1236 (IGDGCIDMCSGHGRCIQGNCVCDEQWGGLYCD; listed as Homo sapiens)” had a minimal inhibitory concentration (MIC) in assay [1] of 50 µg/mL. Further, the “MIC against E. coli BL21” value in assay [2] (setting [12]) came out at 25 µg/mL. Also, the “MIC against P. aeruginosa” value in assay [3] (setting [13]) was determined as 12.5 µg/mL. Moreover, in assay [4] (setting [14]), the “MIC against K. pneumonia” value was 50 µg/mL. Also, the “MIC against E. cloacae” value in assay [5] (setting [15]) stood at 12.5 µg/mL. Moreover, the “MIC against A. hydrophila” value in [6] (setting [16]) was 50 µg/mL. Further, in assay [7] (setting [17]), the “MIC against C. diversus” value is 12.5 µg/mL. Further, the “MIC against M. catarrhalis” value in assay [8] (setting [18]) is 12.5 µg/mL. Also, the “MIC against P. mirabilis” value in [9] (setting [19]) amounted to 25 µg/mL. Also, in assay [10] (setting [20]), the “MIC against P. vulgaris” value was determined as 12.5 µg/mL. The “MIC against S. marcescens” value in [11] (setting [21]) was determined as 25 µg/mL.

“PRT854 (TCSMANCQYGCDVVKGQIRCQCPSPGLQLAPDGRTCV; listed as Homo sapiens)” yielded an MIC in assay [1] of 12.5 µg/mL. Besides, the “MIC (μg/mL) E. coli BL21” value in assay [2] (E. coli BL21, 10 h cultivation at 37° C.) worked out at 12.5 µg/mL. Further, in assay [3] (P. aeruginosa, 10 h cultivation at 37° C.), the “MIC (μg/mL) P. aeruginosa” value came to 100 µg/mL. Besides, the “MIC (μg/mL) K. pneumonia” value in assay [4] (K. pneumonia, 10 h cultivation at 37° C.) came to 12.5 µg/mL. Moreover, the “MIC (μg/mL) E. cloacae” value in assay [5] (E. cloacae, 10 h cultivation at 37° C.) worked out at 12.5 µg/mL. For the same substance, in assay [6] (A. hydrophila, 10 h cultivation at 37° C.), the “MIC (μg/mL) A. hydrophila” value was 12.5 µg/mL. In assay [7] (C. diversus, 10 h cultivation at 37° C.), the “MIC (μg/mL) C. diversus” value turned out to be 12.5 µg/mL. Moreover, the “MIC (μg/mL) M. catarrhalis” value in [8] (M. catarrhalis, 10 h cultivation at 37° C.) turned out to be 50 µg/mL. For the same substance, in assay [9] (P. mirabilis, 10 h cultivation at 37° C.), the “MIC (μg/mL) P. mirabilis” value stood at 12.5 µg/mL. Also, the “MIC (μg/mL) P. vulgaris” value in [10] (P. vulgaris, 10 h cultivation at 37° C.) turned out to be 50 µg/mL. In addition, the “MIC (μg/mL) S. marcescens” value in [11] (S. marcescens, 10 h cultivation at 37° C.) was determined as 12.5 µg/mL.

Substance “PRT1186 (KNSSCLPNPCVNGGTCVGSGASFSCICRDGWEGRTCT; listed as Homo sapiens)” came in with a minimal inhibitory concentration (MIC) in assay [1] of 50 µg/mL. Further, the “MIC E. coli BL21” value in assay [2] (setting [22]) was 25 µg/mL. For the same substance, the “MIC P. aeruginosa” value in assay [3] (setting [22]) is 12.5 µg/mL. Also, the “MIC K. pneumonia” value in assay [4] (setting [22]) came out at 25 µg/mL. In assay [5] (setting [22]), the “MIC E. cloacae” value came to 50 µg/mL. Further, the “MIC A. hydrophila” value in assay [6] (setting [22]) was determined as 12.5 µg/mL. In addition, the “MIC C. diversus” value in assay [7] (setting [22]) is 25 µg/mL. For the same substance, the “MIC M. catarrhalis” value in assay [8] (setting [22]) is 50 µg/mL. Further, the “MIC P. mirabilis” value in assay [9] (setting [22]) came out at 12.5 µg/mL. Further, the “MIC P. vulgaris” value in [10] (setting [22]) is 50 µg/mL. The “MIC S. marcescens” value in assay [11] (setting [22]) was determined as 12.5 µg/mL.
